From publication PMC5433425 (PeerJ, 2017)
Several values for one entry are separate records, joined by “and”; a condition that tells them apart may be missing. Equal values may be shown once. Read-outs that look alike come from different tables or passages of the source.

How the values were obtained:
E. coli AG100 [1] = test: Checkerboard synergy assay (MIC of antibiotics/EtBr with efflux inhibitor); format: cell-based, Escherichia coli; settings: for MIC: Escherichia coli
Procedure: The assays were performed in triplicate and the MIC value was given as result of at least two concordant values.

E. coli AG100tet [2] = test: EtBr accumulation by real-time fluorometry; settings: EtBr 2 µg/ml + inhibitor 80 µM
E. coli AG100 [3] = test: Membrane permeability assay (Live/Dead BacLight)
E. coli AG100tet [4] = test: EtBr efflux by real-time fluorometry; settings: 80 µM
Procedure: Control tubes with only cells and cells with and without 0.4% glucose were included. The fluorescence was measured in a Rotor-Gene 3000 and the data was acquired every 30 s for 30 min at 37 °C. The efflux activity was quantified by comparing the fluorescence data obtained under conditions that promote efflux (presence of glucose and absence of efflux inhibitor) with the data from the control in which the bacteria are under conditions of no efflux (presence of an inhibitor and no energy source).

CN(C)CCCN1c2ccccc2Sc2ccc(Cl)cc21 [CPZ, chlorpromazine]
MIC of OFX in presence of the efflux inhibitor (E. coli AG100 [1]; AG100, inhibitor 80 μM): 0.125 µg/mL
MIC of OXA in presence of the efflux inhibitor (E. coli AG100 [1]; AG100, inhibitor 80 μM): 512 µg/mL
MIC (E. coli AG100 [1]; AG100, AG100, inhibitor 160 μM, read-out: MIC of OXA in presence of the efflux inhibitor): ≤ 1 µg/mL
MIC (E. coli AG100 [1]; AG100, read-out: MIC of EtBr in presence of the efflux inhibitor): 25 µg/mL
MIC (E. coli AG100 [1]; AG100, read-out: MIC of EtBr in presence of the efflux inhibitor, AG100, inhibitor 40 μM): 100 µg/mL
MIC (E. coli AG100 [1]; AG100, read-out: MIC of EtBr in presence of the efflux inhibitor, AG100, inhibitor 160 μM): ≤ 0.39 µg/mL
MIC (E. coli AG100 [1]; AG100, read-out: MIC of OFX in presence of the efflux inhibitor): 0.125 µg/mL
MIC (E. coli AG100 [1]; AG100, read-out: MIC of OFX in presence of the efflux inhibitor, AG100, inhibitor 160 μM): 0.003 µg/mL
MIC (E. coli AG100 [1]; AG100, read-out: MIC of OXA in presence of the efflux inhibitor): 512 µg/mL
MIC (E. coli AG100 [1]; AG100, read-out: MIC of TET in presence of the efflux inhibitor, AG100, inhibitor 40 μM): 1 µg/mL
MIC (E. coli AG100 [1]; AG100, read-out: MIC of TET in presence of the efflux inhibitor, AG100, inhibitor 80 μM): 0.5 µg/mL
MIC (E. coli AG100 [1]; AG100, read-out: MIC of TET in presence of the efflux inhibitor, AG100, inhibitor 160 μM): ≤ 0.03 µg/mL
EtBr fluorescence (E. coli AG100tet [2]; cycle 1): 9.834
EtBr fluorescence (E. coli AG100tet [2]; cycle 2): 10.8502
EtBr fluorescence (E. coli AG100tet [2]; cycle 3): 12.3051
EtBr fluorescence (E. coli AG100tet [2]; cycle 4): 13.857
EtBr fluorescence (E. coli AG100tet [2]; cycle 5): 15.5494
EtBr fluorescence (E. coli AG100tet [2]; cycle 6): 17.3058
EtBr fluorescence (E. coli AG100tet [2]; cycle 7): 19.3992
EtBr fluorescence (E. coli AG100tet [2]; cycle 8): 20.8092
EtBr fluorescence (E. coli AG100tet [2]; cycle 9): 23.1444
EtBr fluorescence (E. coli AG100tet [2]; cycle 10): 25.4323
EtBr fluorescence (E. coli AG100tet [2]; cycle 11): 27.4946
EtBr fluorescence (E. coli AG100tet [2]; cycle 12): 29.7214
EtBr fluorescence (E. coli AG100tet [2]; cycle 13): 31.9876
EtBr fluorescence (E. coli AG100tet [2]; cycle 14): 34.2074
EtBr fluorescence (E. coli AG100tet [2]; cycle 15): 36.9702
EtBr fluorescence (E. coli AG100tet [2]; cycle 16): 39.6127
EtBr fluorescence (E. coli AG100tet [2]; cycle 17): 42.5123
EtBr fluorescence (E. coli AG100tet [2]; cycle 18): 45.4508
EtBr fluorescence (E. coli AG100tet [2]; cycle 19): 48.5847
EtBr fluorescence (E. coli AG100tet [2]; cycle 20): 50.7436
EtBr fluorescence (E. coli AG100tet [2]; cycle 21): 54.1808
EtBr fluorescence (E. coli AG100tet [2]; cycle 22): 57.0724
EtBr fluorescence (E. coli AG100tet [2]; cycle 23): 59.5808
EtBr fluorescence (E. coli AG100tet [2]; cycle 24): 63.2028
EtBr fluorescence (E. coli AG100tet [2]; cycle 25): 66.0088
EtBr fluorescence (E. coli AG100tet [2]; cycle 26): 69.6637
EtBr fluorescence (E. coli AG100tet [2]; cycle 27): 72.1
EtBr fluorescence (E. coli AG100tet [2]; cycle 28): 75.2829
EtBr fluorescence (E. coli AG100tet [2]; cycle 29): 78.0686
EtBr fluorescence (E. coli AG100tet [2]; cycle 30): 80.8335
BacLight Live/Dead fluorescence 485/20,528/20 (E. coli AG100 [3]; 80 uM, raw well reading): 104 and 88
BacLight Live/Dead fluorescence 485/20,590/35 (E. coli AG100 [3]; 80 uM, raw well reading): 30 and 24
membrane permeability increase / membrane permeation (E. coli AG100 [3]; AG100, 80 µM): 18%
Fluorescence raw data, Channel Cycling A.530/585hp (E. coli AG100tet [4]; cycle 1, + glucose): 6.9729
Fluorescence raw data, Channel Cycling A.530/585hp (E. coli AG100tet [4]; cycle 1, without glucose): 6.962
Fluorescence raw data, Channel Cycling A.530/585hp (E. coli AG100tet [4]; cycle 2, + glucose): 6.777
Fluorescence raw data, Channel Cycling A.530/585hp (E. coli AG100tet [4]; cycle 2, without glucose): 6.801
Fluorescence raw data, Channel Cycling A.530/585hp (E. coli AG100tet [4]; cycle 3, + glucose): 6.512
Fluorescence raw data, Channel Cycling A.530/585hp (E. coli AG100tet [4]; cycle 3, without glucose): 6.754
Fluorescence raw data, Channel Cycling A.530/585hp (E. coli AG100tet [4]; cycle 4, without glucose): 6.877
Fluorescence raw data, Channel Cycling A.530/585hp (E. coli AG100tet [4]; cycle 5, without glucose): 7.026
Fluorescence raw data, Channel Cycling A.530/585hp (E. coli AG100tet [4]; cycle 6, without glucose): 7.1507
Fluorescence raw data, Channel Cycling A.530/585hp (E. coli AG100tet [4]; cycle 7, without glucose): 7.108
Fluorescence raw data, Channel Cycling A.530/585hp (E. coli AG100tet [4]; cycle 8, without glucose): 7.075
Fluorescence raw data, Channel Cycling A.530/585hp (E. coli AG100tet [4]; cycle 9, + glucose): 6.252
Fluorescence raw data, Channel Cycling A.530/585hp (E. coli AG100tet [4]; cycle 9, without glucose): 7.246
Fluorescence raw data, Channel Cycling A.530/585hp (E. coli AG100tet [4]; cycle 10, + glucose): 6.3883
Fluorescence raw data, Channel Cycling A.530/585hp (E. coli AG100tet [4]; cycle 10, without glucose): 7.315
Fluorescence raw data, Channel Cycling A.530/585hp (E. coli AG100tet [4]; cycle 11, + glucose): 6.371
Fluorescence raw data, Channel Cycling A.530/585hp (E. coli AG100tet [4]; cycle 11, without glucose): 7.397
Fluorescence raw data, Channel Cycling A.530/585hp (E. coli AG100tet [4]; cycle 12, + glucose): 6.405
Fluorescence raw data, Channel Cycling A.530/585hp (E. coli AG100tet [4]; cycle 12, without glucose): 7.4437
Fluorescence raw data, Channel Cycling A.530/585hp (E. coli AG100tet [4]; cycle 13, + glucose): 6.558
Fluorescence raw data, Channel Cycling A.530/585hp (E. coli AG100tet [4]; cycle 13, without glucose): 7.742
Fluorescence raw data, Channel Cycling A.530/585hp (E. coli AG100tet [4]; cycle 14, + glucose): 6.536
Fluorescence raw data, Channel Cycling A.530/585hp (E. coli AG100tet [4]; cycle 14, without glucose): 7.795
Fluorescence raw data, Channel Cycling A.530/585hp (E. coli AG100tet [4]; cycle 15, + glucose): 6.4669
Fluorescence raw data, Channel Cycling A.530/585hp (E. coli AG100tet [4]; cycle 15, without glucose): 7.899
Fluorescence raw data, Channel Cycling A.530/585hp (E. coli AG100tet [4]; cycle 16, + glucose): 6.613
Fluorescence raw data, Channel Cycling A.530/585hp (E. coli AG100tet [4]; cycle 16, without glucose): 7.989
Fluorescence raw data, Channel Cycling A.530/585hp (E. coli AG100tet [4]; cycle 17, + glucose): 6.675
Fluorescence raw data, Channel Cycling A.530/585hp (E. coli AG100tet [4]; cycle 17, without glucose): 8.041
